Measured values as given in US20060140885A1, “Method of reducing oral tissue inflammation using magnolia extract” (priority 2004, published 2006).

Tested on: S. mutans
Experiment: Minimal Inhibitory Concentration (MIC) in vitro test against S. mutans
Assay type: cell-based
Text: The compositions of the present invention comprise an extract of magnolia. As referred to here, such an “extract” of magnolia is an extract from dried cortex, or bark, of a plant from the Magnoliaceae family, such as Magnolia officinalis, (hereinafter “magnolia”) or a synthetic or semi-synthetic equivalent of such an extract or an active component or compound thereof. […] It should be noted that any plant from the Magnoliaceae family is suitable for the present invention and may be used in alternate embodiments, preferably such that the extract comprises an antimicrobially effective concentration of a compound selected from the group consisting of magnolol, honokiol, tetrahydromagnolol, tetrahydrohonokiol, and mixtures thereof.

Structure (SMILES): C=CCc1ccc(O)c(-c2ccc(O)c(CC=C)c2)c1 [honokiol]
- bactericidal properties against S. mutans (MIC test): bactericidal properties

Structure (SMILES): C=CCc1ccc(O)c(-c2cc(CC=C)ccc2O)c1 [magnolol]
- bactericidal properties against S. mutans (MIC test): bactericidal properties

Structure (SMILES): CCCc1ccc(O)c(-c2ccc(O)c(CCC)c2)c1 [tetrahydrohonokiol]
- bactericidal properties against S. mutans (MIC test): bactericidal properties

Structure (SMILES): CCCc1ccc(O)c(-c2cc(CCC)ccc2O)c1 [tetrahydromagnolol]
- bactericidal properties against S. mutans (MIC test): bactericidal properties
